# Data reported in US20260325521A1, “TREATMENT OF IDIOPATHIC PULMONARY FIBROSIS WITH ENSIFENTRINE” (Verona Pharma Limited, priority 2022, published 2026).
# Entries after “also recorded” stand apart in the source; their conditions may differ.
# Tests used:
# Type in all cases: in vivo
# TGF-β = experiment: Bleomycin-induced pulmonary fibrosis in rats: TGF-β concentration
# Procedure: (§1) An in vivo study was conducted to determine the efficacy of ensifentrine in the treatment of bleomycin-induced pulmonary fibrosis in rats in comparison to a control. Rats were administered bleomycin to induce pulmonary fibrosis. After a week, they then received a daily inhaled dosage of ensifentrine or a control over a period of two weeks. At the end of the two weeks, the rats were sacrificed and their airways were analysed for Bronchoalveolar lavage (BAL) differential cell counts and TGF-β concentration.
# (§2) The BAL differential cell count provided a total inflammatory cell count so that changes in inflammation following treatment could be observed. TGF-β is a key cytokine in the development of tissue fibrosis. Macrophages and other immune cells produce TGF-β, which induces the differentiation of fibroblasts to myofibroblasts and increases TGF-β expression. Overexpression of active TGF-β1 in the lungs of rodents causes severe and progressive tissue fibrosis, including fibroblastic foci and honeycomb formation.
# (§3) At day 0, the rats were subjected to an intratracheal challenge of either 0.9% w/v saline or bleomycin, the latter used to induce pulmonary fibrosis.
# (§4) Starting on day 7, two groups of 12 rats from the bleomycin challenge group were administered an inhaled dose of ensifentrine at either 3 mg/kg (Experiment 1) or 10 mg/kg (Experiment 2) on a daily basis for two weeks, terminating on day 21. The ensifentrine was administered as a suspension in the vehicle suspension article.
# (§5) Two control experiments were also conducted. Control 1 subjected 12 rats from the saline challenge group to daily administration of the vehicle suspension article via inhalation for the full 21 days. Control 2 subjected 12 rats from the bleomycin challenge group to daily administration of the vehicle suspension article via inhalation for the full 21 days.
# (§6) At the end of the 21-day period, the rats were sacrificed and the BAL differential cell counts and the TGF-β concentration data were collected.
# An in vivo study was conducted to compare the efficacy of ensifentrine and nintedanib in the treatment of bleomycin-induced pulmonary fibrosis in rats. Following the same initial experimental procedure as in Example 3, 12 rats from the bleomycin challenge group were administered a daily dose of 100 mg/kg of nintedanib via an oral gavage for two weeks, starting from day 7 (Experiment 3). A new control experiment was also conducted (Control 3), administering the vehicle suspension article orally in an aqueous solution.
# At day 21, the rats were sacrificed and their airways were analysed to calculate the TGF-β concentration. The results were compared to those of Experiments 1 and 2 (Example 3).
# [1] = Diarrhoea as side effect of inhaled ensifentrine in patients
# [2] = test system: bleomycin-induced pulmonary fibrosis; experiment: Efficacy in treatment of bleomycin-induced pulmonary fibrosis in rats (overall); conditions: inhalation, 3 mg/kg and 10 mg/kg
# Procedure: as §1, §3, §4
# Two control experiments were also conducted. Control 1 subjected 12 rats from the saline challenge group to daily administration of the vehicle suspension article via inhalation for the full 21 days. Control 2 subjected 12 rats from the bleomycin challenge group to daily administration of the vehicle suspension article via inhalation for the full 21 days. […]
# [3] = test system: inflammatory cell and macrophage infiltration into the rat airways; experiment: Bleomycin-induced pulmonary fibrosis in rats: BAL differential cell counts
# Procedure: as §1, §2, §3, §4, §5, §6
# IL-8 = experiment: Clinical study in COPD patients: change in blood IL-8 with inhaled ensifentrine compared with placebo; conditions: inhaled by nebuliser, 3 mg BID, 24 weeks, FIG. 1
# Procedure: (§7) A clinical study was conducted to determine the efficacy of ensifentrine in treating COPD compared with placebo. Ensifentrine was administered by nebuliser at a dose of 3 mg twice daily (BID) for 24 weeks. The study was a multi-centre, randomized, double-blind, parallel-group, placebo-controlled trial with around 800 patients and 5:3 randomization.
# (§8) The study population included patients aged 40-80 years with moderate to severe COPD (FEV1 30%-70% p.n., FEV1/forced vital capacity (FVC) ratio <0.7, with mMRC ≥2). The randomization stratified (a) the use of stable background maintenance LAMA or LABA therapy use (approx. 50%. yes or no) and (b) cigarette smoking (current or former). Inhaled corticosteroid (ICS) maintenance therapy was permitted in up to 20% of patients under certain provisions.
# (§9) The effect of ensifentrine on the change in blood IL-6 and IL-8 was measured.
# (§10) The investigational product and placebo were provided in 2.5 mL unit dose format in an ampule and administered via a nebuliser.
# [4] = test system: bleomycin-induced lung fibrosis; experiment: Rodent model of bleomycin-induced lung fibrosis (Example 2); conditions: rodents, inhalation; dose and period not given; histological fibrotic area
# Procedure: The anti-fibrotic activity of ensifentrine is assessed using a rodent model of bleomycin-induced lung fibrosis.
# Bleomycin is administered to anaesthetised rodents to induce lung fibrosis. Ensifentrine is then administered to the test rodents by inhalation for a period, and the rodents are subsequently killed. Lung samples are obtained for histological studies to determine fibrotic area.
# IL-6 = experiment: Clinical study in COPD patients: change in blood IL-6 with inhaled ensifentrine compared with placebo; conditions: inhaled by nebuliser, 3 mg BID, 24 weeks, FIG. 1
# Procedure: as §7, §8, §9, §10
# [5] = inhaled 3 mg/kg/day QD from day 7, day 21, vs bleomycin Control 2 (Experiment 1)
# [6] = inhaled 10 mg/kg/day QD from day 7, day 21, vs bleomycin Control 2 (Experiment 2)
smiles,measurement,setting,value
"COc1cc2c(cc1OC)-c1c/c(=N\c3c(C)cc(C)cc3C)n(CCNC(N)=O)c(=O)n1CC2 [ensifentrine, N-(2-{(2E)-9,10-dimethoxy-4-oxo-2-[(2,4,6-trimethylphenyl)imino]-6,7-dihydro-2H-pyrimido[6,1-a]isoquinolin-3(4H)-yl}ethyl)urea]",TGF-β concentration in the rat lungs compared with nintedanib,"TGF-β; day 21, inhaled ensifentrine 3 mg/kg/day (Experiment 1) vs oral nintedanib 100 mg/kg/day (Experiment 3)",lower than the TGF-β concentration following treatment with nintedanib; also recorded: greater reduction in TGF-β concentration than orally administered nintedanib
same,TGF-β concentration in the rat lungs compared with nintedanib,"TGF-β; day 21, inhaled ensifentrine 10 mg/kg/day (Experiment 2) vs oral nintedanib 100 mg/kg/day (Experiment 3)",lower than the TGF-β concentration following treatment with nintedanib; also recorded: greater reduction in TGF-β concentration than orally administered nintedanib
same,TGF-β concentration,TGF-β; [5],lower; also recorded: reduction in BAL differential cell count and TGF-β concentration
same,TGF-β concentration,TGF-β; [6],lower; also recorded: reduction in BAL differential cell count and TGF-β concentration
same,diarrhoea (side effect),[1],avoid side effects such as diarrhoea; also recorded: not to be associated with diarrhoea
same,efficacy in the treatment of bleomycin-induced pulmonary fibrosis,[2],effective
same,BAL differential cell count,"[3]; inhaled 3 mg/kg QD from day 7, day 21 (Experiment 1)",reduction in BAL differential cell count
same,macrophage infiltration into the airways (BAL differential cell counts),[3]; [5],reduction in total inflammatory cell and macrophage infiltration
same,total inflammatory cell infiltration into the airways (BAL differential cell counts),[3]; [5],reduction in total inflammatory cell
same,BAL differential cell count,"[3]; inhaled 10 mg/kg QD from day 7, day 21 (Experiment 2)",reduction in BAL differential cell count
same,macrophage infiltration into the airways (BAL differential cell counts),[3]; [6],reduction in total inflammatory cell and macrophage infiltration
same,total inflammatory cell infiltration into the airways (BAL differential cell counts),[3]; [6],reduction in total inflammatory cell
same,blood IL-8,IL-8,reduce blood IL-6 and IL-8; also recorded: reduction in blood IL-6 and IL-8
same,anti-fibrotic effect in bleomycin-induced lung fibrosis,[4],anti-fibrotic effect
same,blood IL-6,IL-6,reduce blood IL-6; also recorded: reduction in blood IL-6
